Values joined by “and” are separate entries in the source; they are usually repeats but may differ in a detail not shown here. Equal values may be shown once. “Also recorded” adds a separate entry of the source. Read-outs that look alike come from different tables or passages of the source.
Columns and labels:
Format in all cases: cell-based, Plasmodium falciparum
[1] = test system: Dd2 parasites; test: P. falciparum proliferation assay (72 h, fluorescent DNA-intercalating dye); details: read-out: IC50 values; Dd2 parasites; individual experiments
Procedure: (§1) For experiments with all other parasites, the effects of compounds of interest on parasite proliferation was measured in 96-well plates containing serial dilutions of the compounds in culture medium, with a fluorescent DNA-intercalating dye used to detect surviving parasites. The assays were initiated with erythrocytes infected with predominantly ring-stage parasites, and the starting parasitaemia and haematocrit were both 1%.

[2] = test system: HCR2 parasites (highly cipargamin-resistant clone 2); test: as above; details: HCR2 parasites, individual experiments, read-out: IC50 values
Procedure: as §1

[3] = test system: Dd2-Polδ-PfATP4^G358S parasites; test: as above; details: Dd2-Polδ-PfATP4G358S parasites; individual experiments; read-out: IC50 values
Procedure: as §1

[4] = test system: Dd2-Polδ parasites; test: as above
Procedure: as §1

[5] = test system: Dd2-PfATP4^T418N,P990R parasites; test: as above; details: Dd2-PfATP4T418N,P990R parasites; individual experiments; read-out: IC50 values
Procedure: as §1

[6] = test system: HCR1 parasites (highly cipargamin-resistant clone 1); test: as above; details: Plasmodium falciparum, HCR1 parasites; individual experiments; read-out: IC50 values
Procedure: as §1

[7] = test system: NF54^WT parasites; test: microbe, parasite or virus in culture; details: for FC (IC50) / FC (IC90): NF54WT, reference line
Procedure: (§2) For the NF54-based lines and Dd2-B2-PfATP4^G358S and its parent, assays were initiated with cultures containing predominantly ring-stage parasites with a parasitaemia of 0.3% and a haematocrit of 1%. All assays using NF54 were performed in culture media containing 10% O + human serum. The duration of the assays was 72 h and the concentration of DMSO was <0.5% (v/v). Serial dilutions of the test compounds were performed using a Tecan D300e digital dispenser, with parasite cultures added manually. Parasite survival was assessed by flow cytometry on an Intellicyt iQue3 (Essen Bioscience), with 1× SYBR Green I (Invitrogen) and 200 nM MitoTracker Deep Red FM (Invitrogen) used to stain the nucleus and the mitochondria in live parasites, respectively. The gating strategy used to quantify parasite survival, performed using FlowJo version 10 (FlowJo LLC.), is illustrated in Supplementary Fig. 9. IC50 and IC90 values were calculated by linear interpolation of the dose-response data.

[8] = test system: NF54^CTL parasites; test: P. falciparum proliferation assay (72 h, flow cytometry, SYBR Green I/MitoTracker); details: for FC (IC50) / FC (IC90): NF54CTL compared to NF54WT
Procedure: as §2

[9] = test system: parasite lines with a G358S mutation in PfATP4; test: P. falciparum proliferation assays, statements on all lines with the G358S mutation; details: G358S lines vs PfATP4 wild-type controls
Procedure: as §2, with “Two types of parasite proliferation assays were employed in this study, with both yielding highly consistent results. For” for “For”
as §1, with “1%. […] Fluorescence was measured using a FLUOstar OPTIMA plate reader (BMG LABTECH), with OPTIMA version 2.20R2 and MARS Data Analysis Software version 3.01 R2 (BMG LABTECH).” for “1%.”

[10] = test system: NF54^G358S-1 parasites; test: P. falciparum proliferation assay (72 h, flow cytometry, SYBR Green I/MitoTracker)
Procedure: as §2

[11] = test system: NF54^G358S-2 parasites; test: as above
Procedure: as §2

[12] = NF54WT parasites, individual experiments, read-out: IC50 values
[13] = NF54WT parasites, individual experiments, read-out: IC90 values
[14] = Plasmodium falciparum, NF54, NF54WT parasites, individual experiments, read-out: IC90 values
[15] = Plasmodium falciparum, NF54, NF54WT parasites, mean of the experiments, read-out: IC50 values, MEAN
[16] = Plasmodium falciparum, NF54, NF54WT parasites, mean of the experiments, read-out: IC90 values, MEAN
[17] = NF54CTL parasites, individual experiments, read-out: IC50 values
[18] = NF54CTL parasites, individual experiments, read-out: IC90 values
[19] = Plasmodium falciparum, NF54, NF54CTL parasites, individual experiments, read-out: IC90 values
[20] = Plasmodium falciparum, NF54, NF54CTL parasites, mean of the experiments, read-out: IC50 values, MEAN
[21] = Plasmodium falciparum, NF54, NF54CTL parasites, mean of the experiments, read-out: IC90 values, MEAN

| SMILES | IC50 [7, 12] | IC90 [7, 13] | FC (IC50) [7] [fold] | FC (IC90) [7] [fold] | IC90 [7, 14] [µM] | IC50 [7, 15] [µM] | IC90 [7, 16] [µM] | FC (IC50) [8] [fold] | FC (IC90) [8] [fold] | IC50 [8, 17] | IC90 [8, 18] | IC90 [8, 19] [µM] | IC50 [8, 20] [µM] | IC90 [8, 21] [µM] | effect of the G358S mutation in PfATP4 on parasite susceptibility [9] | other results |
| --- | --- | --- | --- | --- | --- | --- | --- | --- | --- | --- | --- | --- | --- | --- | --- | --- |
| CCN(CC)CCCC(C)Nc1ccnc2cc(Cl)ccc12 (stereo not shown) [Chloroquine] | – | – | – | – | – | – | – | – | – | – | – | – | – | – | – | IC50 [1]: 0.092 µM and 0.187 µM; IC50 [2]: 0.229 µM; IC50 ([2]; Plasmodium falciparum): 0.159 µM; IC50 [3]: 0.161 µM and 0.262 µM and 0.227 µM; IC50 ([4]; Dd2-Polδ parasites, individual experiments, read-out: IC50 values): 0.172 µM and 0.316 µM; IC50 ([4]; Plasmodium falciparum, DD2, Dd2-Polδ parasites, mean of the experiments, read-out: IC50 values, MEAN): 0.185 µM; IC50 ([4]; Plasmodium falciparum, DD2, SET-2, read-out: Mean IC50 value ± SEM for growth inhibition, Dd2-Polδ, Supplementary Table 1, Set 2): 0.185 µM; IC50 [5]: 0.165 µM; IC50 [6]: 0.092 µM |
| CC1(C)c2nc(-c3ccc(F)cc3)c(Nc3ccc(F)cc3)n2CCN1C(=O)CN [KAF156] | 0.0069 µM and 0.0071 µM and 0.0054 µM | 0.0147 µM and 0.0129 µM and 0.0124 µM and 0.00988 µM and 0.0136 µM and 0.00968 µM | 1.0 | 1.0 | 0.0175 | 0.0067 | 0.013 | 0.7 | 0.8 | 0.0051 µM and 0.0044 µM and 0.0045 µM and 0.0059 µM and 0.0047 µM | 0.0138 µM and 0.00919 µM and 0.00936 µM and 0.00854 µM and 0.00944 µM and 0.00966 µM | 0.0126 | 0.0049 | 0.0104 | no impact; also recorded: no effect | IC50 ([7]; Plasmodium falciparum, NF54, NF54WT parasites, individual experiments, read-out: IC50 values): 0.0072 µM; IC50 ([7]; Plasmodium falciparum, NF54, NF54WT, 10% human serum, read-out: IC50 ± SEM): 0.0067 ± 0.0002 µM; IC50 ([8]; Plasmodium falciparum, NF54, NF54CTL parasites, individual experiments, read-out: IC50 values): 0.0055 µM |
| CCCCN(CCCC)CC(O)c1cc(Cl)cc2c1-c1ccc(Cl)cc1/C2=C/c1ccc(Cl)cc1 (stereo not shown) [Lumefantrine] | 0.057 µM and 0.0337 µM and 0.0898 µM and 0.0486 µM | 0.102 µM and 0.14 µM and 0.109 µM | 1.0 | 1.0 | 0.142 | 0.0573 | 0.123 | 0.8 | 1.0 | 0.0386 µM and 0.0284 µM and 0.0708 µM and 0.0458 µM | 0.0981 µM and 0.138 µM and 0.12 µM | 0.138 | 0.0459 | 0.123 | no effect | FC (IC50) ([10]; NF54G358S-1 compared to NF54WT): 0.7 fold; FC (IC90) ([10]; NF54G358S-1 compared to NF54WT): 1.1 fold; IC50 ([10]; NF54G358S-1 parasites, individual experiments, read-out: IC50 values): 0.034 µM and 0.0517 µM and 0.0361 µM; IC90 ([10]; NF54G358S-1 parasites, individual experiments, read-out: IC90 values): 0.115 µM and 0.13 µM and 0.12 µM; IC50 ([10]; Plasmodium falciparum, NF54, NF54G358S-1 parasites, individual experiments, read-out: IC50 values): 0.0482 µM; IC90 ([10]; Plasmodium falciparum, NF54, NF54G358S-1 parasites, individual experiments, read-out: IC90 values): 0.182 µM; IC50 ([10]; Plasmodium falciparum, NF54, NF54G358S-1 parasites, mean of the experiments, read-out: IC50 values, MEAN): 0.0425 µM; IC90 ([10]; Plasmodium falciparum, NF54, NF54G358S-1 parasites, mean of the experiments, read-out: IC90 values, MEAN): 0.137 µM; FC (IC50) ([11]; NF54G358S-2 compared to NF54WT): 0.7 fold; FC (IC90) ([11]; NF54G358S-2 compared to NF54WT): 1.0 fold; IC50 ([11]; NF54G358S-2 parasites, individual experiments, read-out: IC50 values): 0.0318 µM and 0.0461 µM and 0.0313 µM; IC90 ([11]; NF54G358S-2 parasites, individual experiments, read-out: IC90 values): 0.0827 µM and 0.129 µM and 0.123 µM; IC50 ([11]; Plasmodium falciparum, NF54, NF54G358S-2 parasites, individual experiments, read-out: IC50 values): 0.0551 µM; IC90 ([11]; Plasmodium falciparum, NF54, NF54G358S-2 parasites, individual experiments, read-out: IC90 values): 0.152 µM; IC50 ([11]; Plasmodium falciparum, NF54, NF54G358S-2 parasites, mean of the experiments, read-out: IC50 values, MEAN): 0.0411 µM; IC90 ([11]; Plasmodium falciparum, NF54, NF54G358S-2 parasites, mean of the experiments, read-out: IC90 values, MEAN): 0.122 µM |
